A value given as a limit tells only on which side of the number the result lay.

These results are taken from patent US10016383B2, “Inhibitors of metallo-β-lactamase-enzymes” (McMaster University, priority 2013, dated 2018).

The test system of data set [1] is K. pneumoniae N11-2218. Briefly: Mouse lethal systemic infection, survival. The format is in vivo, CD1 mice. An excerpt: All animals were housed in specific pathogen-free units in the Central Animal Facility at McMaster University. All experimental protocols were approved by, and performed in accordance with the McMaster Animal Research Ethics Board. Female CD1 mice were purchased from Charles River.
Mice were infected intraperitoneally (ip) with a dose of 2×10^6 colony forming units (cfu) of Klebsiella pneumoniae N11-2218 for all organ bacterial load experiments, or with a dose of 5×10^7cfu for all survival experiments. For all organ bacterial load experiments, mice were euthanized 48 hours post infection, and spleen and liver were harvested. Organs were placed into 1 mL sterile PBS on ice, and then homogenized (Mixer Mill 400; Retsch). Organ homogenates were then serially diluted in PBS, and plated on Brilliant Green agar (Oxoid) for cfu enumeration. For survival curves, mice were monitored for endpoint. For all experiments, mice were treated 30 minutes post infection with a specified subcutaneous dose of either PBS, meropenem, AM-A inhibitor, or a combination of both antibiotic and inhibitor.

Data set [2] has as its system IMP-7. The data set can be described thus: Incubation of AM-A with metalloenzymes in Zn2+-depleted buffer. To be noted: extended incubation, AM-A 0.5 mM. The format is biochemical. The procedure:
20 μL of the above was diluted with 180 μL nitrocefin or FAPGG substrate for the following final concentrations: Enzyme (50 nM), FAPGG (50 μM)/nitrocefin (20 μM), AM-A (50 μM). Buffer (50 mM HEPES pH 7.5, 300 mM NaCl) was stirred overnight with 2 g/100 mL Chelex-100 (Biorad; Richmond, Calif.). Assays were read in 96-well microplate format at 490 nm using a Spectramax reader (Molecular Devices) at 37° C.

For data set [3] the following is noted: rats, i.v.; cited from earlier work.
Data set [4] deals with NDM-1 (Klebsiella pneumoniae, UniProt C7C422). Briefly: ICP mass spectrometry of Zn in enzyme. To be noted: NDM-1 inactivated by AM-A, ICP-MS. The procedure: Inductively coupled mass spectrometry (ICP-MS) was used to analyze the ability of AM-A to chelate Zn^66 from purified NDM-1 (27-270). The NDM-1 protein was purified as previously described^26 and freshly exchanged using a 15 kDa cutoff dialysis tubing into ICP-MS buffer (20 mM HEPES, 100 mM NaCl, pH 7.5) overnight at 4° C. in order to remove any contaminating metals. The protein was concentrated to ˜5 mg/mL and varying concentrations of AM-A were incubated with the protein samples in triplicate for 3 hours at room temperature with gentle shaking. The protein-AM-A samples were again dialyzed overnight at 4° C. into ICP-MS buffer using 12-14 kDa cutoff D-tube dialyzer mini (EMD biosciences) microdialysis cassettes. The final protein was diluted to 1 mg/mL in ICP-MS buffer, followed by a 1/40 dilution in an internal standard (10 ug/L Sc45, 1% nitric acid, Inorganic Ventures). Prior to sample analysis, the ICP MS was calibrated using a standard solution containing the metal isotopes of interest (Inorganic Ventures). […] Quantitative analysis was performed in triplicate for each sample with 60 sweeps per reading using the peak-hopping mode with a 50 ms/AMU dwell time for each element. […] Isotope abundance was determined by integrating peak areas using the NexION software program, and the data was represented graphically using Microsoft Excel.

Data set [5] addresses T1, ACE (Oryctolagus cuniculus, UniProt P12822).
T1 construct: as well as ACE from rabbit lung; from tissue; host or cells: rabbit lung
T1 sequence (P12822 34-1310): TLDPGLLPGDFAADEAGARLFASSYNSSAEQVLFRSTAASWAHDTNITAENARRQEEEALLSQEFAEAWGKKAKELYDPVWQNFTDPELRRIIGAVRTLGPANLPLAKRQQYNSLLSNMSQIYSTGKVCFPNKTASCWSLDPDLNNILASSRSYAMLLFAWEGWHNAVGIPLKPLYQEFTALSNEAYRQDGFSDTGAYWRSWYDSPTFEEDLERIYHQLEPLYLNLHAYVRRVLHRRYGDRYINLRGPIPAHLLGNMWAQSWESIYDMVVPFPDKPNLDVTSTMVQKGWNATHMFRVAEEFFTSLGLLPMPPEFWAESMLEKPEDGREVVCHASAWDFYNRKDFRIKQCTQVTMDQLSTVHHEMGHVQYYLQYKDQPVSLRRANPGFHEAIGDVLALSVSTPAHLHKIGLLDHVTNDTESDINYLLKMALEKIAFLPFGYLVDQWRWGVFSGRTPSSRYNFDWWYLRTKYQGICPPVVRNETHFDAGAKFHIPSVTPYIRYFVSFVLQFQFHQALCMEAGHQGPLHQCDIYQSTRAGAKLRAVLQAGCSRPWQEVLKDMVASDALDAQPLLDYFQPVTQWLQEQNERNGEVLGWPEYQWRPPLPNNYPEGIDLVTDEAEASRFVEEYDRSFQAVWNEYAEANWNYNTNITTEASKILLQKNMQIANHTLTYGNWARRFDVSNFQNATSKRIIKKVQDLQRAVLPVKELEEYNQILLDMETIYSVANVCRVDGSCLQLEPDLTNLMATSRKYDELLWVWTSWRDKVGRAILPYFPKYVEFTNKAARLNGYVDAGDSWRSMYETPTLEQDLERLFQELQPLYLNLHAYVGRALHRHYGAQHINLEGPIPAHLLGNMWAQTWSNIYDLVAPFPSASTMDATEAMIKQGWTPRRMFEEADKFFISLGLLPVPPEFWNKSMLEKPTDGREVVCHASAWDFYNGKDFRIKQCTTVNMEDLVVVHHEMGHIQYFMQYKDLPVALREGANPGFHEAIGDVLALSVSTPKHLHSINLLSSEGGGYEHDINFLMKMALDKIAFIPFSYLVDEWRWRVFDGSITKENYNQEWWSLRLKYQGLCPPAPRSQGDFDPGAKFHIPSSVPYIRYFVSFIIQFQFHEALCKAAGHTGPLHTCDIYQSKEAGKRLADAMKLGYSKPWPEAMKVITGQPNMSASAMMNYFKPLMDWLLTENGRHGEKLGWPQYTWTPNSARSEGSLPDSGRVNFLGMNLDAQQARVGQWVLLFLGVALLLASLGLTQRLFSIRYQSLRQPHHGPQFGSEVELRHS
The data set can be described thus: Incubation of AM-A with metalloenzymes in Zn2+-depleted buffer. The class given is biochemical, rabbit. To be noted: extended incubation, AM-A 0.5 mM. The procedure: Enzyme (500 nM) was incubated with AM-A (500 μM) for 10 minutes. 20 μL of the above was diluted with 180 μL nitrocefin or FAPGG substrate for the following final concentrations: Enzyme (50 nM), FAPGG (50 μM)/nitrocefin (20 μM), AM-A (50 μM). Buffer (50 mM HEPES pH 7.5, 300 mM NaCl) was stirred overnight with 2 g/100 mL Chelex-100 (Biorad; Richmond, Calif.). Assays were read in 96-well microplate format at 490 nm using a Spectramax reader (Molecular Devices) at 37° C.

NDM-1, sequence (C7C422 27-270 limits assumed): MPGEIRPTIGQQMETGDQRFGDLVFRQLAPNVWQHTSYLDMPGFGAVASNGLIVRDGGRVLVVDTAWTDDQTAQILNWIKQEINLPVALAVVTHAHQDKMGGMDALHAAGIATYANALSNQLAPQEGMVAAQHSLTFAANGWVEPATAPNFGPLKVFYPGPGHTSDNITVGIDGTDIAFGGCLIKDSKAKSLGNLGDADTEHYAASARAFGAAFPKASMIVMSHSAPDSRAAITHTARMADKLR

As usually defined, the LD50 is the dose expected to kill half of the subjects tested. What is called inhibition is the drop in the measured response relative to a control, in per cent. Turning to `N[C@H](CN[C@H](CN[C@@H](CC(=O)O)C(=O)O)C(=O)O)C(=O)O` [AM-A, aspergillomarasmine A], the “prevention of lethal infection” value in data set [1] (monotherapy (alone)) is given as “unable to prevent lethal infection”. Moreover, in data set [1] (single dose of combination meropenem 10 mg/kg + AM-A 30 mg/kg, 5 days following infection), the survival is listed as above 95%. Besides, the “inhibition of activity in IMP-7” value in data set [2] was around 70%. Moreover, the LD50 in data set [3] is 250 mg/kg. Also, in data set [4], the “loss of Zn from NDM-1” value is on record as around 1.8 Zn equivalents. In addition, the inhibition at 500 µM in data set [5] was around 50%.
